Source: patent US20080051413A1, “Nitrophenylpiperazine derivative of xanthine which relaxes tracheal airway and increases respiratory performance” (KAOHSIUNG MEDICAL UNIVERSITY, priority 2006, published 2008)

Columns and labels:
[1] = molecular target: T1, PDE3 purified from human platelets (Homo sapiens, UniProt Q14432); experiment: Phosphodiesterase activity, PDE3; format: biochemical; settings: 10 _M compound, n = 3
T1 construct: PDE3 and PDE5 purified from human platelets; from tissue; host or cells: human platelets
T1 sequence (Q14432 whole entry): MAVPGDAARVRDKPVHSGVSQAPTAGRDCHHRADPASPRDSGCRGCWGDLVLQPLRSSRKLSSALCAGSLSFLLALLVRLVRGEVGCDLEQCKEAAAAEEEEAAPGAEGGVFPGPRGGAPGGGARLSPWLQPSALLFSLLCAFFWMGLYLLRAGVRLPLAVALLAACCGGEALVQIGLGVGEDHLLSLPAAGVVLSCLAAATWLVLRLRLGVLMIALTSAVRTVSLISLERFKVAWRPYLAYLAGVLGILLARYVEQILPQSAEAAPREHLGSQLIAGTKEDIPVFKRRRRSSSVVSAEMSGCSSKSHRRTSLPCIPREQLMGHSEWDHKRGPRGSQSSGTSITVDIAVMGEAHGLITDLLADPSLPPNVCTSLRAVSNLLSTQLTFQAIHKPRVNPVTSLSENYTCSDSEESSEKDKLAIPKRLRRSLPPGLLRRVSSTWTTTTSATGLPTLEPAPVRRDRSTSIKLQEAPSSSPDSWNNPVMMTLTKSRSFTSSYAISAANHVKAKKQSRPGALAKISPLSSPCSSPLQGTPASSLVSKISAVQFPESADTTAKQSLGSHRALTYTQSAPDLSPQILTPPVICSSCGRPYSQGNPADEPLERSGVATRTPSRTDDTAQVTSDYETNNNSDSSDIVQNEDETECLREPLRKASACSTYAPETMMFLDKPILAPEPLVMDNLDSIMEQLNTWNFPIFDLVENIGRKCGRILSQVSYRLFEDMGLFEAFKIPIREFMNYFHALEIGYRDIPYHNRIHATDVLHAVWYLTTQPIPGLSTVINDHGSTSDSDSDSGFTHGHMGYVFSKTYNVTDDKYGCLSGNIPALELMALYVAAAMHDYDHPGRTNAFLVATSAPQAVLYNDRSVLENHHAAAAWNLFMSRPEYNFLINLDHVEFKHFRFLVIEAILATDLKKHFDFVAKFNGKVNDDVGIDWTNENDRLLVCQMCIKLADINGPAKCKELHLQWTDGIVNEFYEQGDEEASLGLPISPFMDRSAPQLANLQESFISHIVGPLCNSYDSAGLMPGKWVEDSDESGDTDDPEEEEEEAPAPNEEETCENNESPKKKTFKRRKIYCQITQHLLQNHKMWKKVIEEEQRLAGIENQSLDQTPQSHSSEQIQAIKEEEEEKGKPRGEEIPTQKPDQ
Procedure: PDE3 and PDE5 purified from human platelets and PDE4 purified from human U-937 pronocytic cells were used. Test compound (10 _M) or vehicle was incubated with 0.2 _g of enzyme and 1 _M cAMP containing 0.01 _M [^3H]cAMP in Tris buffer, pH 7.5, for 20 min at 25_. The reaction was terminated by boiling for 2 min, and the resulting cAMP was converted to adenosine by the addition of 10 mg/ml snake venom nucleotidase, which is followed by a further incubation at 37_for 10 min. Unhydrolyzed cAMP was bound to AG1-X2 resin, and the remaining [^3H]adenosine in the aqueous phase was quantitated by scintillation counting.

[2] = test system: PDE4 purified from human U-937 pronocytic cells; experiment: Phosphodiesterase activity, PDE4; format: biochemical; settings: 10 _M compound, n = 3
Procedure: Phosphodiesterase Activity: PDE activity was determined by the method of Nicholson et al. (Nicholson C D, Challiss R A, and Shahid M (1991) Differential modulation of tissue function and therapeutic potential of selective inhibitors of cyclic nucleotide phosphodiesterase isonzymes. Trends Pharmaclo Sci 12:19-27). PDE3 and PDE5 purified from human platelets and PDE4 purified from human U-937 pronocytic cells were used. Test compound (10 _M) or vehicle was incubated with 0.2 _g of enzyme and 1 _M cAMP containing 0.01 _M [^3H]cAMP in Tris buffer, pH 7.5, for 20 min at 25_. The reaction was terminated by boiling for 2 min, and the resulting […] was converted to adenosine by the addition of 10 mg/ml snake venom nucleotidase, which is followed by a further incubation at 37_for 10 min. Unhydrolyzed cAMP was bound to AG1-X2 resin, and the remaining [^3H]adenosine in the aqueous phase was quantitated by scintillation counting.

[3] = molecular target: T2, PDE5 purified from human platelets (Homo sapiens, UniProt O76074); experiment: Phosphodiesterase activity, PDE5; format: biochemical; settings: 10 _M compound, n = 3
T2 construct: PDE3 and PDE5 purified from human platelets; from tissue; host or cells: human platelets
Procedure: The reaction was terminated by boiling for 2 min, and the resulting GMP was converted to adenosine by the addition of 10 mg/ml snake venom nucleotidase, which was followed by a further incubation at 37_ for 10 min. Unhydrolyzed cGMP was bound to AG1-X2 resin, and the remaining [^3H]guanosine in the aqueous phase was quantitated by scintillation counting.

respiratory performance = experiment: Pulmonary function after i.v. injection (RL, Cdyn, tidal volume); format: in vivo; settings: 1 mg/kg i.v., guinea pig, n = 3
Procedure: Animals: Male Dunkin Harley guinea pigs (350-450 g) were provide by the National Laboratory Animal Breeding and Research Center (Taipei, Taiwan) and housed under conditions of constant temperature and controlled illumination. Food and water were available and libitum. The study was approved by the Animal Care and Use Committee of the Kaohsiung Medical University.
Pulmonary Function: Guinea pegs (350-450 g) were anesthetized with pentobarbital (40 mg/kg i.p.) and maintained with further i.v. doses of 2 to 5 mg/kg when required according to methods previously described (Wu B N, Lin R J, Lo Y C, Shen K P, Wang C C, Lin Y T, and Chen I J (2004) KMUP-1, a xanthine derivative, induces relaxation of guinea-pig isolated trachea: the role of the epithelium, cyclic nucleotides and K^+ channels, Br J Pharmacol 142:1105-1114). The animal was tethered in a supine position, and the trachea was cannulated below the larynx with a short tracheal cannula via a tracheotomy. Tracheal pressure was measured by a catheter connected to the side arm of the tracheal cannula. The carotid artery and jugular vein were cannulated to monitor blood pressure and heart rate and for drug administration, respectively. Throughout the experiment, the body temperature of the guinea pig was maintained at 37_. Measurements of pulmonary cardiac function were carried out as previously described (Hsu T H, Lai Y L, and Kou Y R (1998) Acetylcholine and tachykinin receptor antagonists attenuate wood smoke-induced bronchoconstriction in Guinea pigs. Eur J Pharmacol 360:175-183). Total lung resistance (RL) and dynamic lung compliance (Cdyn) were measured on a breath-by-breath basis using a computer equipped with an A/D interface (DAS 1600; Buxco Electronics, Inc., Wilmington, N.C.) and software (version 1.5.7; Buxco Electronics, Inc.). Results obtained from the computer analysis were checked for accuracy by comparison with those calculated manually.
Animals were allowed to stabilize for 10 min following surgical manipulations before the test agent was administered. Intratracheal instillation was performed using a catheter placed through the tracheal tube into the bronchial system. The catheter connected to a 1-ml syringe was inserted into the trachea cannula extending 1 cm beyond the tip of the cannula for instillation of drug or vehicle. The instillation was followed by rapid intratracheal injection of 0.5 ml of air to facilitate deposition of drug or vehicle into the lungs as in the modified methods of Chung et al. (2001)(Chung W H, Bennett B M, Racz W J, Brien J F, and […] Fischer 344 rats during aminodarone-induced pulmonary fibrosis. Am J Physiol 281:L1180-L1188). The animals were pretreated intratracheally with KMUP-3 (0.5, 1.0, and 2.0 mg/kg/150 _l of saline) or an equivalent volume (150 _l) of vehicle 15 min before TNF-_(0.01 mg/kg/300 _l saline) was instilled to induce acute bronchoconstriction. In another experiments, KMUP-3 or KMUP-1 (1.0 mg/kg i.v.) were used to compare the effects on respiratory performance, indicated by changes of tidal volume, total RL, and Cdyn.

In the case of `Cn1c(=O)c2c(ncn2CCN2CCN(c3ccccc3Cl)CC2)n(C)c1=O` [KMUP-1, reference compound], the PDE3 inhibition [1] is reported as 23 ± 2.2%, the “PDE4 Inhibition” value [2] is reported as 18 ± 2.3% and the “PDE5 Inhibition” value [3] is reported as 29 ± 2.5%. For the same compound, the “Cdyn, Maximum change of baseline (%)” value (respiratory performance) was 35 ± 4.5%, the “RL, Maximum change of baseline (%)” value (respiratory performance) was −20 ± 3.5% and the “Tidal Volume, Maximum change of baseline (%)” value (respiratory performance) was 2.8 ± 0.2%.
